Measurements: US20120010292A1, “MODIFICATION I OF 4-(PHENYL)ETHYL]-AMINO}METHYL)BENZOIC ACID” (BAYER SCHERING PHARMA AKTIENGESELLSCHAFT, priority 2008, published 2012)

Assay: Stability of the crystal modification (thermodynamic and storage stability)
Type: physicochemical
Conditions: for thermodynamic stability of the crystal modification: solid form of the compound of the formula (I)

SMILES | storage stability (even after processing to suspensions) | thermodynamic stability of the crystal modification
O=C(O)CCCCN(CCc1ccccc1OCc1ccc(CCc2ccccc2)cc1)Cc1ccc(C(=O)O)cc1 [modification I, 4-({(4-carboxybutyl)[2-(2-{[4-(2-phenylethyl)benzyl]oxy}phenyl)ethyl]amino}-methyl)benzoic acid] | storage-stable | thermodynamically stable
O=C(O)CCCCN(CCc1ccccc1OCc1ccc(CCc2ccccc2)cc1)Cc1ccc(C(=O)O)cc1 [modification IV, 4-({(4-Carboxybutyl)[2-(2-{[4-(2-phenylethyl)benzyl]oxy}phenyl)ethyl]amino}methyl)benzoic acid] |  | metastable
